From patent US20060003980A1, “Cobalt(II) complexes as protein tyrosine kinase inhibitors” (priority 2004, published 2006)
Entries after “also recorded” stand apart in the source; their conditions may differ. Read-outs that look alike come from different tables or passages of the source.

How the values were obtained:
[1] = molecular target: T1, Csk (Homo sapiens, UniProt P41240); assay: Tyrosine kinase activity of Csk using poly E4Y and 32P-ATP; format: biochemical
T1 construct: GST (glutathione-S-transferase); made in house; host or cells: E. coli (pGEX vector)
T1 sequence (P41240 whole entry, species assumed): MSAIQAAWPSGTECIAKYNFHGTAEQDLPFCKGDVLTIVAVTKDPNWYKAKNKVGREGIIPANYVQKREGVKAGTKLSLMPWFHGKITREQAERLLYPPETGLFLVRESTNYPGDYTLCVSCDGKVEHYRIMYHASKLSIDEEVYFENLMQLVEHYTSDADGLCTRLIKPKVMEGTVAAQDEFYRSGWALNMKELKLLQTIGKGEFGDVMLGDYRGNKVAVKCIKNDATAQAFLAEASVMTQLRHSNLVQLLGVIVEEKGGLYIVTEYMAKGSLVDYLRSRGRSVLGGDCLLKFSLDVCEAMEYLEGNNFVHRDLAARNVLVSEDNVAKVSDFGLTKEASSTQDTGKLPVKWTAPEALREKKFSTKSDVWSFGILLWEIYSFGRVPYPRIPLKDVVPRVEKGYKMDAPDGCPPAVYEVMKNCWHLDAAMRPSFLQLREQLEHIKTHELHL
Protocol: (§1) Recombinant human Src was expressed using the baculovirus-insect cell system and purified as published (Budde et al., 1993). Recombinant Csk and the FGF receptor (FGFr) were expressed as glutathione-S-transferase fusion proteins using the pGEX expression vector and E. coli, and purified as described (Sun et al., 1995).
(§2) The tyrosine kinase activity of Src, Csk and FGFr was determined using poly E4Y and ^32P-ATP. Briefly, enzymes were assayed in a reaction mixture consisting of 0.15 M EPPS-NaOH (pH 8.0) with 6 mM MgCl2, 0.2 mM γ^32P-ATP (0.2-0.4 mCi/μmol), 10% glycerol, 0.1% Triton X-100, and poly E4Y. Poly E4Y is a synthetic peptide whose phosphorylation is measured in this assay by the addition of the radioactively labeled phosphate from the ATP (Budde et al., 1994). For screening assays, 50 μg/ml poly E4Y was used.

[2] = molecular target: FGF receptor (FGFr) (Homo sapiens, UniProt P11362); assay: Tyrosine kinase activity of FGFr using poly E4Y and 32P-ATP; format: biochemical
Sequence of FGF receptor (FGFr) (P11362 398-822): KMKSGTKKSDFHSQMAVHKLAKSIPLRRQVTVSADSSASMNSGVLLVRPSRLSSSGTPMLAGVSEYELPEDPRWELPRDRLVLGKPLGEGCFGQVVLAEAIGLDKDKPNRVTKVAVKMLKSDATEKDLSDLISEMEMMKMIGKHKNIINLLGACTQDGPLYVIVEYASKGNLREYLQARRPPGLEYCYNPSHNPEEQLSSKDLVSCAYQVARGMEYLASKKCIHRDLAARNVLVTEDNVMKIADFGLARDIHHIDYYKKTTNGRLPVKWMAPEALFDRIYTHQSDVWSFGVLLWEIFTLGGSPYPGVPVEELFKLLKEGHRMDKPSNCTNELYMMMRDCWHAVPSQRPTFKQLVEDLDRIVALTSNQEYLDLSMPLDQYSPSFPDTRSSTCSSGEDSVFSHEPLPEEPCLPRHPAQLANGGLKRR
Protocol: Recombinant human Src was expressed using the baculovirus-insect cell system and purified as published (Budde et al., 1993). Recombinant Csk and the FGF receptor (FGFr) were expressed as glutathione-S-transferase fusion proteins using the pGEX expression vector and E. coli, and purified as described (Sun et al., 1995). The tyrosine kinase activity of Src, Csk and FGFr was determined using poly E4Y and ^32P-ATP. […] Poly E4Y is a synthetic peptide whose phosphorylation is measured in this assay by the addition of the radioactively labeled phosphate from the ATP (Budde et al., 1994). For screening assays, 50 μg/ml poly E4Y was used.

[3] = molecular target: Src (Homo sapiens, UniProt P12931); assay: Tyrosine kinase activity of Src using poly E4Y and 32P-ATP; format: biochemical
Protocol: as §1, §2

[4] = system: cell growth; assay: Cell growth inhibition (FIG. 1); format: cell-based
Text: FIG. 1 graphically illustrates that a stable cobalt-tyrosineamide identified as complex no.
This indicates a requirement for both the tyrosine amide moiety and for the metal moiety.

[5] = * = Extrapolated value from the graph

| Compound | IC50 [2] | IC50 [3] | further results |
| --- | --- | --- | --- |
| NC(=O)CCC(N)C(N)=O.[Cl][Co][Cl] (centres unmarked) [Complex 22] | 46 µM | 71 µM | IC50 [1, 5]: 361 µM |
| NC(Cc1ccc(O)cc1)C(=O)NO.[Co+2].[O-][Cl+3]([O-])([O-])[O-].[O-][Cl+3]([O-])([O-])[O-] (centres unmarked) [Complex 1] | 14 µM | – | – |
| NC(=O)C(N)Cc1ccc(O)cc1.[OH][Co][Cl] (centres unmarked) [Complex 15] | – | 46 µM | IC50 [1, 5]: 330 µM; IC50 [2, 5]: 180 µM |
| NCCC(=O)NO.[OH][Co][OH] [Complex 8] | – | 100 µM | IC50 [1, 5]: 150 µM |
| O=Cc1ccccc1[O-].O=Cc1ccccc1[O-].[Co+2] [Complex 44, Co(salicylaldehyde)2] | – | 113 µM | IC50 [2, 5]: 148 µM |
| CC(C)CC(N)C(N)=O.[Cl-].[Cl-].[Co+2] (centres unmarked) [Complex 18] | 38 µM | – | IC50 [1, 5]: 211 µM; IC50 [3, 5]: 105 µM |
| NC(=O)[C@@H](N)Cc1ccc(O)cc1 [tyrosine amide] | – | – | cell growth inhibition [4]: not inhibitory; also recorded: neither free metal nor the tyrosine amide were inhibitory |
| NCCN.[Cl-].[Co+2].[OH-] [Complex 24] | 24 µM | – | IC50 [3, 5]: 215 µM |
| NC(=O)CCC(N)C(=O)[O][Co][Cl] (centres unmarked) [Complex 21] | 93 µM | 58 µM | IC50 [1, 5]: 389 µM |
| N[C@H](c1ccccc1)[C@H](N)c1ccccc1.N[C@H](c1ccccc1)[C@H](N)c1ccccc1.[Cl][Co][Cl].[Cl][Co][Cl] [Complex 31] | 98 µM | 55 µM | IC50 [1]: 50 µM |
| [Co+2].[O-]c1ccccc1C=NCCN=Cc1ccccc1[O-] [Complex 35, Co[N,N-bis(salicylidene)ethylenediamine]] | 3 µM | 108 µM | IC50 [1]: 92 µM |
| [Cl][Co]1([Cl])[PH](c2ccccc2)(c2ccccc2)CC[PH]1(c1ccccc1)c1ccccc1 [Complex 38] | – | 66 µM | – |
| [Cl][Co]([Cl])([PH](c1ccccc1)(c1ccccc1)c1ccccc1)[PH](c1ccccc1)(c1ccccc1)c1ccccc1 [Complex 37] | 76 µM | – | – |
| NC(=O)C(N)Cc1ccc(O)cc1.[Cl-].[Cl-].[Co+2] (centres unmarked) [Complex 14] | 20 µM | 28 µM | – |
| O=C([O][Co][O]C(=O)c1ccccc1S)c1ccccc1S [Complex 34] | 125 µM | – | – |
| O=C(C=C(O)C(F)(F)F)C(F)(F)F [Complex 42] | – | 105 µM | – |
| N[C@@H]1CCCC[C@H]1N.[Cl-].[Cl-].[Co+2] (racemic) [Complex 30] | – | 79 µM | IC50 [2, 5]: 123 µM |

| Compound | IC50 [2] | IC50 [3] | further results |
| --- | --- | --- | --- |
| CC(=O)[O-].NC(=O)C(N)Cc1ccc(O)cc1.[Co+2].[OH-] (centres unmarked) [Complex 16] | – | – | IC50 [3, 5]: 285 µM |
| C[SH]1CCC(N)C(=O)[N](O)[Co]1[OH] (racemic) [Complex 4] | – | – | IC50 [3, 5]: 176 µM |
| CN1CCCN=Cc2ccccc2[O][Co][O]c2ccccc2C=NCCC1 [Complex 40] | 41 µM | 95 µM | – |
| NC(=O)C(N)Cc1c[nH]c2ccccc12.[O-][Cl+3]([O-])([O-])[O][Co][O][Cl+3]([O-])([O-])[O-] (centres unmarked) [Complex 13] | 54 µM | 24 µM | IC50 [1]: 77 µM |
| O=C(NO)c1ccccc1O.O=C(NO)c1ccccc1O.[Cl][Co][Cl] [Complex 33] | 2 µM | 6 µM | IC50 [1]: 92 µM |
| CC(=O)C=C(C)[O-].CC(=O)C=C(C)[O-].[Co+2] [Complex 41] | – | – | IC50 [2, 5]: 233 µM; IC50 [3, 5]: 177 µM |
| CC(C)CC(N)C(N)=O.[Cl-].[Cl-].[Co+2] (centres unmarked) [Complex 19] | 45 µM | 35 µM | – |
| N[C@H](c1ccccc1)[C@@H](N)c1ccccc1.N[C@H](c1ccccc1)[C@@H](N)c1ccccc1.[Cl][Co][Cl].[Cl][Co][Cl] [Complex 27] | 17 µM | 7 µM | IC50 [1]: 59 µM |
| NCCNc1cccc2ccccc12.[Cl-].[Cl-].[Co+2] [Complex 26] | 39 µM | 65 µM | – |
| NCC(=O)NO.[OH][Co][OH] [Complex 5] | – | – | IC50 [3, 5]: 259 µM |
| CC(=O)C=C([O-])c1ccccc1.CC(=O)C=C([O-])c1ccccc1.[Co+2] [Complex 43] | 83 µM | 47 µM | – |
| Nc1ccccc1N.[Cl-].[Cl-].[Co+2] [Complex 25] | 14 µM | 9 µM | IC50 [1, 5]: 210 µM |
| [Co+2].[O-]c1ccccc1C=Nc1ccccc1N=Cc1ccccc1[O-] [Complex 36, Co[N,N-bis(salicylidene)1,2-phenylenediamine]] | 1 µM | 28 µM | IC50 [1, 5]: 128 µM |
| Co[N,N-bis(salicylidene)dianiline] [Complex 39] | – | – | IC50 [2, 5]: 155 µM; IC50 [3, 5]: 133 µM |
| NC(=O)CCC(N)C(=O)[O][Co][Cl] (centres unmarked) [Complex 20] | 100 µM | 57 µM | IC50 [1, 5]: 281 µM |
| NCC(N)=O.[Cl-].[Cl][Co][Cl].[Na+] [Complex 17] | 22 µM | 56 µM | IC50 [1, 5]: 218 µM |
| O=C([O-])c1ccccc1O.O=C([O-])c1ccccc1O.[Co+2] [Complex 32] | 182 µM | – | – |
